Tests used:
[1] = target: GST-Xa-hAAK1 (Homo sapiens (Human), UniProt Q2M2I8); assay: AAK1 Kinase Assay; assay type: biochemical; settings: ATP 22 μM; GST-Xa-hAAK1 3.5 nM; 3 hours at room temperature
Experimental: The assays were performed in U-bottom 384-well plates. […] The reactions were initiated by the combination of bacterially expressed, GST-Xa-hAAK1 with substrates and test compounds. The reactions were incubated at room temperature for 3 hours and terminated by adding 60 μl of 35 mM EDTA buffer to each sample. The reactions were analyzed on the Caliper LabChip 3000 (Caliper, Hopkinton, Mass.) by electrophoretic separation of the fluorescent substrate and phosphorylated product. […] Compounds were dissolved at 10 mM in dimethylsulfoxide (DMSO) and evaluated at eleven concentrations. IC50 values were derived by non-linear regression analysis.

[2] = system: PC12 cells; settings: cited from earlier work
[3] = system: HCV; settings: Huh-7.5 cells; cited from earlier work
[4] = system: HCV; settings: Huh-7.5 cells; cited from earlier work; remark: listed apart in the source

Chain of GST-Xa-hAAK1 (Q2M2I8 whole entry): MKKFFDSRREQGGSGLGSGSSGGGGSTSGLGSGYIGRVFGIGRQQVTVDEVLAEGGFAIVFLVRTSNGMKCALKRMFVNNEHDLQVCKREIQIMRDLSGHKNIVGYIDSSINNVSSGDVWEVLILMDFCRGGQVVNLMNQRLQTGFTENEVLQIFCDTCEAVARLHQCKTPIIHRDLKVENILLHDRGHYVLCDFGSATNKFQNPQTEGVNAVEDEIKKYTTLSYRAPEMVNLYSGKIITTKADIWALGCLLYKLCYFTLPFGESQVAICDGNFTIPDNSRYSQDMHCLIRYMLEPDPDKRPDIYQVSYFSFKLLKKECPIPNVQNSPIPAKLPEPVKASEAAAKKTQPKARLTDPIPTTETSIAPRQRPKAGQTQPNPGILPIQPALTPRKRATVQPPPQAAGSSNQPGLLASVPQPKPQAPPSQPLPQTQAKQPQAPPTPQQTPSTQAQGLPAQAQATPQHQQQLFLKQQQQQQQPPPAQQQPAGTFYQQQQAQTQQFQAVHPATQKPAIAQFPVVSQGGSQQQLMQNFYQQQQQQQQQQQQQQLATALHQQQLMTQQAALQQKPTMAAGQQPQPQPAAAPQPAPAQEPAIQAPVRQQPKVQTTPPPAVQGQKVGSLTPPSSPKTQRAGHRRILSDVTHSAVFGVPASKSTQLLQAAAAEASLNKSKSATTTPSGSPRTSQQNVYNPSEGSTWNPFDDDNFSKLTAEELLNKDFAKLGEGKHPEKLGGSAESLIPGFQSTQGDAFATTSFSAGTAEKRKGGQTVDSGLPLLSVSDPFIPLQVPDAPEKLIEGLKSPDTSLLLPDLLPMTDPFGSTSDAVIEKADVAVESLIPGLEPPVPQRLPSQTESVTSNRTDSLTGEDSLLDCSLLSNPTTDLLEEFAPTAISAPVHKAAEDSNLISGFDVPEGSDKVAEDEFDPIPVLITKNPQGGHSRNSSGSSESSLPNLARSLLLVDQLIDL

CC(C)C[C@](C)(N)COc1ccc(-c2ccnc3cc(F)ccc23)nc1Cl [Example 136, (S)-1-((2-chloro-6-(7-fluoroquinolin-4-yl)pyridin-3-yl)oxy)-2,4-dimethylpentan-2-amine]
IC50 [1]: 4.8 nM

COC(=O)[C@@]1(O)C[C@H]2O[C@]1(C)n1c3ccccc3c3c4c(c5c6ccccc6n2c5c31)C(=O)NC4 [Example K252a, K252a]
effect on Neuregulin-1 induced neurite outgrowth [2]: potentiation of Neuregulin-1 induced neurite outgrowth

CCN(CC)CCNC(=O)c1c(C)[nH]c(/C=C2\C(=O)Nc3ccc(F)cc32)c1C [sunitinib]
effect on HCV virion assembly [3]: reduced HCV virion assembly | effect on HCV entry [4]: inhibit HCV entry

Source: patent US10155760B2, “Biaryl kinase inhibitors” (BRISTOL-MYERS SQUIBB COMPANY, priority 2014, dated 2018)
